Experimental data: ChEMBL document CHEMBL1137573, “Cyclooxygenase-2 inhibitors. 1,5-diarylpyrrol-3-acetic esters with enhanced inhibitory activity toward cyclooxygenase-2 and improved cyclooxygenase-2/cyclooxygenase-1 selectivity” (J Med Chem, 2007)

Assays:
[1] = biological target: T1, Prostaglandin G/H synthase 2 (Mus musculus, UniProt Q05769)
T1 sequence (Q05769 whole entry): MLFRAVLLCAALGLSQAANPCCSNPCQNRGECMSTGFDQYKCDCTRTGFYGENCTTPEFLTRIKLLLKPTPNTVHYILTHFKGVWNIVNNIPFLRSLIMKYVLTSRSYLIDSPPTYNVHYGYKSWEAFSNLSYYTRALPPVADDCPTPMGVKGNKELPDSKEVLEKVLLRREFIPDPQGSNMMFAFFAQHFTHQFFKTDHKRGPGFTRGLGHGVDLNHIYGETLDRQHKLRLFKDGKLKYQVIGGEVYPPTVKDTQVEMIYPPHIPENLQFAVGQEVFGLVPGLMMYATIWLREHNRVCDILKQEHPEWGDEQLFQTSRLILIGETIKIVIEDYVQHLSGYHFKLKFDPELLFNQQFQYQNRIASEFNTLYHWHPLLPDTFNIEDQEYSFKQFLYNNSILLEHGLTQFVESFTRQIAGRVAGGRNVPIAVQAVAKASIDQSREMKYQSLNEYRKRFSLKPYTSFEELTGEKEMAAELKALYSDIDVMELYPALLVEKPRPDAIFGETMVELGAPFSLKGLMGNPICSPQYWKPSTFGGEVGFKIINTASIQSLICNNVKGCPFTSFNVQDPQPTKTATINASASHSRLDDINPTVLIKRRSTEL
Description: Inhibition of COX2 in LPS-stimulated J774 cells assessed as inhibition of PGE2 levels by radioimmunoassay

Mus musculus [2] = species: Mus musculus; assay: Selectivity ratio of IC50 for mouse COX1 to IC50 for mouse COX2
[3] = biological target: T2, Prostaglandin G/H synthase 1 (Mus musculus, UniProt P22437); assay: Inhibition of COX1 in mouse J774 cells assessed as arachidonic acid-induced PGE2 levels by radio immunoassay; format: cell-based
T2 sequence (P22437 whole entry): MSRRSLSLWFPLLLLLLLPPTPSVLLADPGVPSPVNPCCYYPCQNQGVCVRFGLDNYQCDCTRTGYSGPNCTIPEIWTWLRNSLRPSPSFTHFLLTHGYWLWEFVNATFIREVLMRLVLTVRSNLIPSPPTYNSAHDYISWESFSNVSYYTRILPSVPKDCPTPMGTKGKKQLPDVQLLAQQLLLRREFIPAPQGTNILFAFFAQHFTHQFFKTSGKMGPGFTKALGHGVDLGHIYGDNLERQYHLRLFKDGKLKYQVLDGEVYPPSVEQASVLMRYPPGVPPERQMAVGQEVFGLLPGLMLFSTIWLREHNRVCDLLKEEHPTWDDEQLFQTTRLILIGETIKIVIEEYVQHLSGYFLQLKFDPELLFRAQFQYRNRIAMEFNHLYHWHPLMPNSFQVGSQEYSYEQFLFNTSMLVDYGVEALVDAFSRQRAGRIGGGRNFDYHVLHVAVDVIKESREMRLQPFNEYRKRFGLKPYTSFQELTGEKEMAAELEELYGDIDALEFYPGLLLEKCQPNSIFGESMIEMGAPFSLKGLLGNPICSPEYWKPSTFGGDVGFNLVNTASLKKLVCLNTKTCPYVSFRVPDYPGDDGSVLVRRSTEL

[4] = biological target: Prostaglandin G/H synthase 1 (Homo sapiens, UniProt P23219); assay: Inhibition of COX1 in human whole blood assessed as TXB2 production; format: tissue-based
Sequence of Prostaglandin G/H synthase 1 (Homo sapiens, UniProt P23219) (P23219 whole entry): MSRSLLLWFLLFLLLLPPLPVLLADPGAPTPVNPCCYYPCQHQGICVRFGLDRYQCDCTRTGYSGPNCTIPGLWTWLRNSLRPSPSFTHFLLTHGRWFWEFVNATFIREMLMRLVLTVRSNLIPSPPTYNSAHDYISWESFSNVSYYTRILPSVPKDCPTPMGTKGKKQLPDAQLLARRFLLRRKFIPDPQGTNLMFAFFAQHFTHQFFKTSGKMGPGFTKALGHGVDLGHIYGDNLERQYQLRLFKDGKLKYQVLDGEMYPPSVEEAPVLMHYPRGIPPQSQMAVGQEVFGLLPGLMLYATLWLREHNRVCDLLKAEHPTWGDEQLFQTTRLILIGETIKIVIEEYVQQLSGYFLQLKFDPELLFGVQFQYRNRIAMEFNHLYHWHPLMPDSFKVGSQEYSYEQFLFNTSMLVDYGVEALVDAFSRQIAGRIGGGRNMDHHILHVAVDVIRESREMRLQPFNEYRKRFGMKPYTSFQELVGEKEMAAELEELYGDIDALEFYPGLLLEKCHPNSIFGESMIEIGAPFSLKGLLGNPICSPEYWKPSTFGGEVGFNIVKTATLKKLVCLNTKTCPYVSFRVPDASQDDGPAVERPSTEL

Rattus norvegicus [5] = assay: Antiinflammatory activity against carrageenan-induced hyperalgesia in rat assessed as paw pressure in rat at 20 mg/kg, po after 60 mins; format: functional
Mus musculus [6] = assay: Analgesic activity against acetic acid induced abdominal constriction in Swiss Albino mouse assessed as number of writhings at 20 mg/kg, po after 10 mins; format: functional, Abdomen
Mus musculus [7] = assay: Analgesic activity against acetic acid induced abdominal constriction in Swiss Albino mouse assessed as number of writhings at 10 mg/kg, po after 10 mins; format: functional, Abdomen
[8] = biological target: T3, Prostaglandin G/H synthase 2 (Homo sapiens, UniProt P35354); assay: Inhibition of COX2 in LPS-induced monocyte assessed as PGE2 production in human whole blood
T3 sequence (P35354 whole entry): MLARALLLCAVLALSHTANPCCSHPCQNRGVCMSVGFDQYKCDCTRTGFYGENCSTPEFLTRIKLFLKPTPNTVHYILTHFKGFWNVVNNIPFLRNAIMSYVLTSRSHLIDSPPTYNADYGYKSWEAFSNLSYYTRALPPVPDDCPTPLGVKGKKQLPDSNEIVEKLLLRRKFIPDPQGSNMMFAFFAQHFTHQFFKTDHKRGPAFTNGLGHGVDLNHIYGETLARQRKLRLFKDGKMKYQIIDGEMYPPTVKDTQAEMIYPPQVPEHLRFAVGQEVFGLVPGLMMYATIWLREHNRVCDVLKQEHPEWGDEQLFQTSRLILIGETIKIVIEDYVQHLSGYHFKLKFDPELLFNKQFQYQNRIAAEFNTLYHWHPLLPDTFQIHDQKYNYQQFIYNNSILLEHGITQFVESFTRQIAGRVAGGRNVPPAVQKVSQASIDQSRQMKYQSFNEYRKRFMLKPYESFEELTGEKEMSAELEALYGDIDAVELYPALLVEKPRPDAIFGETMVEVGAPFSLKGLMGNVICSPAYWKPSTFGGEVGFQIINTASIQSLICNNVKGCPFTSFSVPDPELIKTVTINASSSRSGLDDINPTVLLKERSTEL

Rattus norvegicus [9] = assay: Antiinflammatory activity against carrageenan-induced paw edema in rat at 20 mg/kg, po; format: functional
Rattus norvegicus [10] = assay: Antiinflammatory activity against carrageenan-induced hyperalgesia in rat assessed as paw pressure in rat at 20 mg/kg, po after 30 mins; format: functional
Rattus norvegicus [11] = assay: Antiinflammatory activity against carrageenan-induced hyperalgesia in rat assessed as paw pressure in rat at 20 mg/kg, po after 120 mins; format: functional

| Structure (SMILES) | IC50 [1] | Ratio IC50 (Mus musculus [2]) | IC50 [3] | also measured |
| --- | --- | --- | --- | --- |
| CCOC(=O)C(=O)c1cc(-c2ccc(S(C)(=O)=O)cc2)n(-c2cccc(F)c2)c1C | 0.9 µM | > 100 | > 100 µM |  |
| CCOC(=O)Cc1cc(-c2ccc(C)cc2)n(-c2ccc(S(C)(=O)=O)cc2)c1C | 1.96 µM | > 50 | > 100 µM |  |
| CCOC(=O)C(=O)c1cc(-c2ccc(F)c(F)c2)n(-c2ccc(S(C)(=O)=O)cc2)c1C |  |  | > 100 µM |  |
| CCOC(=O)Cc1cc(-c2ccc(S(C)(=O)=O)cc2)n(-c2ccc(F)cc2)c1C | 0.01 µM | > 10000 | > 100 µM |  |
| CCOC(=O)C(=O)c1cc(-c2ccc(C(F)(F)F)cc2)n(-c2ccc(S(C)(=O)=O)cc2)c1C |  |  | > 100 µM |  |
| CCOC(=O)C(=O)c1cc(-c2ccc(F)cc2)n(-c2ccc(S(C)(=O)=O)cc2)c1C |  |  | > 100 µM |  |
| CCOC(=O)Cc1cc(-c2ccccc2)n(-c2ccc(S(C)(=O)=O)cc2)c1C |  |  | > 100 µM |  |
| CCOC(=O)Cc1cc(-c2ccc(OC)cc2)n(-c2ccc(S(C)(=O)=O)cc2)c1C | 0.55 µM | > 200 | > 100 µM |  |
| CCOC(=O)C(=O)c1cc(-c2ccc(S(C)(=O)=O)cc2)n(-c2ccc(OC)cc2)c1C | 0.94 µM | > 100 | > 100 µM |  |
| CCOC(=O)Cc1cc(-c2ccc(S(C)(=O)=O)cc2)n(-c2ccc(F)c(F)c2)c1C |  | > 5000 | > 100 µM |  |
| CCOC(=O)Cc1cc(-c2ccc(S(C)(=O)=O)cc2)n(-c2cccc(F)c2)c1C |  | > 10000 | > 100 µM | IC50 [4]: 20.4 µM; Activity (Rattus norvegicus [5]): 49.8 g; Activity (Mus musculus [6]): 15.7; Activity (Mus musculus [7]): 28.9; IC50 [8]: 2.1 µM; Activity (Rattus norvegicus [9]): 95.5%; Activity (Rattus norvegicus [10]): 55.2 g; Activity (Rattus norvegicus [11]): 43.4 g |
| CCOC(=O)Cc1cc(-c2ccc(S(C)(=O)=O)cc2)n(-c2ccc(OC)cc2)c1C | 0.026 µM | > 4000 | > 100 µM |  |
| CCOC(=O)Cc1cc(-c2ccc(F)cc2)n(-c2ccc(S(C)(=O)=O)cc2)c1C | 0.4 µM | > 250 | > 100 µM |  |
| CCOC(=O)C(=O)c1cc(-c2ccccc2)n(-c2ccc(S(C)(=O)=O)cc2)c1C |  |  | > 100 µM |  |
| CCOC(=O)Cc1cc(-c2ccc(C(F)(F)F)cc2)n(-c2ccc(S(C)(=O)=O)cc2)c1C |  |  | > 100 µM |  |
| CCOC(=O)C(=O)c1cc(-c2ccc(OC)cc2)n(-c2ccc(S(C)(=O)=O)cc2)c1C |  |  | > 100 µM |  |
| CCOC(=O)C(=O)c1cc(-c2ccc(S(C)(=O)=O)cc2)n(-c2ccc(F)c(F)c2)c1C | 8.4 µM | > 12 | > 100 µM |  |
| CCOC(=O)C(=O)c1cc(-c2ccc(S(C)(=O)=O)cc2)n(-c2ccc(F)cc2)c1C | 11 µM | > 9 | > 100 µM |  |
| CCOC(=O)Cc1cc(-c2ccc(F)c(F)c2)n(-c2ccc(S(C)(=O)=O)cc2)c1C | 5.4 µM | > 19 | > 100 µM |  |
| CCOC(=O)C(=O)c1cc(-c2ccc(C)cc2)n(-c2ccc(S(C)(=O)=O)cc2)c1C |  |  | > 100 µM |  |
